Measurements reported in patent US20260273047A1, “COMPOSITIONS AND METHODS FOR AMELIORATING ADVERSE EFFECTS OF THERAPIES” (MDX Management LLC, priority 2023, published 2026).
“Also recorded” adds a separate entry of the source.

Experiments:
[1] = test system: MC38; assay: MC38 tumors treated intratumorally with TPI-1 and T cell activating agents; type: in vivo, C57Bl/6 mice
Description: Inhibition of SHP-1 was tested in vivo for tumor therapies. […] Tumor growth was measured over time until the tumors reached 2.0 cm in diameters. […] Anti-PD-1 antibody was 205[…] 50 μg by intratumoral injection every 3 days. Anti-CD3 antibody and anti-CD28 antibody were each 205[…] 50 μg by intratumoral injection in a single dose.

[2] = test system: 4T1 breast cancer; type: in vivo; conditions: lotion twice a day; anti-PD-1 100 μg i.p. every three days; all groups prophylactic anti-TNFα mAb
Description: Efficacy of topical treatments against tumor growth and/or progression was tested using murine models of cutaneous/subcutaneous breast cancer. […] Palpable tumors were formed in 10-15 days and were traced by bioluminescence imaging. Tumor sizes were measured manually, and the volume was calculated by the equation=[length (mm)×width (mm)×width (mm)]/2. Once the total tumor volume reached ≥200 mm^3, treatments were started.
Treatment groups included: (i) Control treatment (ctl.), wherein mice received topical non-drug lotion (vehicle) only; (ii) αPD-1 treatment, wherein mice received topical non-drug lotion (vehicle) treatment along with 100 μg of anti-PD-1 monoclonal antibody once every three days through intraperitoneal injection; (iii) Topical treatment with TLR agonists only (i.e. Condition A), wherein mice received aTLR (Resiquimod (R848) and polyI:C) prepared in Johnson's lotion, each at 100 μg/ml in a final volume of 100-200 μL lotion: (iv) Topical treatment with SHP-1 inhibitors only (i.e. Condition B), wherein mice received deuterated TPI-1 (dTPI-1) at 100 μg/ml in a final volume of 100-200 μL lotion; (v) Topical treatment with Conditions A+B only in a final volume of 100-200 μL lotion; and (vi) Topical treatment with Conditions A+B in a final volume of 100-200 μL lotion and systemic αPD-1 treatment. […]

[3] = test system: malignant melanoma and advanced malignancies; conditions: cited from earlier work

O=C1C=CC(=O)C(c2cc(Cl)ccc2Cl)=C1 [TPI-1, 2-(2,5-dichlorophenyl)benzoquinone]
effect of adding TPI-1 to αPD-1, IL-2, anti-CD3/CD28 or αPD-1+IL-2 ([1]; TPI-1 1 mg/kg every 2 days, 1 mg/kg): enabled the intratumoral injection of αPD-1, IL-2, or anti-CD3/CD28 to achieve strong anti-tumor effects; also recorded: instantly overcame treatment resistance
effect on established tumors, such as MC38, KPC, or LLC ([1]; agent alone): only minor effects
MC38 tumor growth / resistance ([1]; intratumoral, agent without SHP-1 inhibitor, or TPI-1 alone (1 mg/kg every 2 days)): did not attenuate tumor growth; also recorded: did not stop tumor progression

[2H]C1=C([2H])C(=O)C(c2c([2H])c(Cl)c([2H])c([2H])c2Cl)=C([2H])C1=O [dTPI-1]
4T1 tumor growth / progression [2]: only slightly delayed tumor progression

O.O.O.O.O.O.O.O.O.O=C([O-])[C@@H]1[O][Sb]2([O-])([O][Sb]34([OH])[O][C@H]([C@H](O)CO)[C@H]([O]3)[C@H](C(=O)[O-])[O]4)[O][C@H]([C@H](O)CO)[C@@H]1[O]2.[Na+].[Na+].[Na+] [SSG, sodium stibogluconate]
most common toxic side-effects, frequency ([3]; thrombocytopenia, elevated serum lipase, fatigue, fever, chills, anemia, hypokalemia, pancreatitis, skin rash): up to 68 % of patients
effect against tumor development ([3]; with interferons, followed or not by chemotherapy): no effect was seen against tumor development
